Experimental data from the supplement of paper PMC10883282.

Columns and labels:
Assay in all cases: relative viability vs DMSO control (72 h) (fraction); higher = more viable cells
[1] = test system: G401
Summary of the method: (§1)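 ATPLite readings, expressed as percent growth and averaged over up to triplicate wells, provided relative viability. Before reading, sarcoma cell lines seeded in 384-well plates to reach 80–90% confluence received 2.5 µl of serially diluted compound after 24 h, from source plates of 10 mM to 0.0002 mM. Plates were held 72 h at 37 °C, 5% CO2, with 0.1% DMSO as vehicle and a 5 µM positive control. The data were rescaled to 1 for full and 0 for none.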

[2] = test system: HT1080
Summary of the method: as §1

[3] = test system: KHOS-NP
Summary of the method: as §1

[4] = test system: MES-SA
Summary of the method: as §1

[5] = test system: RD-ES
Summary of the method: as §1

[6] = test system: RD
Summary of the method: as §1

[7] = test system: SK-ES-1
Summary of the method: as §1

[8] = test system: SK-LMS-1
Summary of the method: as §1

[9] = test system: SW1353
Summary of the method: as §1

[10] = test system: SW684
Summary of the method: as §1

[11] = test system: SW872
Summary of the method: as §1

[12] = test system: VA-ES-BJ
Summary of the method: as §1

CCc1nc(C(N)=O)c(Nc2ccc(N3CCC(N4CCN(C)CC4)CC3)c(OC)c2)nc1NC1CCOCC1 [Gilteritinib]
Conditions	relative viability
[1], 60 pM	1.03
[1], 0.00018 µM	0.985
[1], 0.00053 µM	0.968
[1], 0.0016 µM	0.998
[1], 0.0048 µM	0.981
[1], 0.014 µM	0.979
[1], 0.043 µM	0.971
[1], 0.13 µM	0.851
[1], 0.389 µM	0.661
[1], 1.167 µM	0.478
[1], 3.5 µM	0.457
[2], 60 pM	1.08
[2], 0.00018 µM	1.032
[2], 0.00053 µM	0.999
[2], 0.0016 µM	1.04
[2], 0.0048 µM	1.07
[2], 0.014 µM	1.05
[2], 0.043 µM	1.05
[2], 0.13 µM	1.05
[2], 0.389 µM	1
[2], 1.167 µM	0.6791
[2], 3.5 µM	0.595
[3], 60 pM	1.08
[3], 0.00018 µM	1.12
[3], 0.00053 µM	1.07
[3], 0.0016 µM	1.1
[3], 0.0048 µM	1.061
[3], 0.014 µM	1.06
[3], 0.043 µM	1.03
[3], 0.13 µM	1.02
[3], 0.389 µM	0.959
[3], 1.167 µM	0.83
[3], 3.5 µM	0.695
[4], 60 pM	0.954
[4], 0.00018 µM	0.936
[4], 0.00053 µM	0.921
[4], 0.0016 µM	0.922
[4], 0.0048 µM	0.904
[4], 0.014 µM	0.947
[4], 0.043 µM	0.904
[4], 0.13 µM	0.89
[4], 0.389 µM	0.76
[4], 1.167 µM	0.51
[4], 3.5 µM	0.393
[5], 60 pM	0.986
[5], 0.00018 µM	0.961
[5], 0.00053 µM	0.9574
[5], 0.0016 µM	0.968
[5], 0.0048 µM	0.963
[5], 0.014 µM	0.938
[5], 0.043 µM	0.88
[5], 0.13 µM	0.687
[5], 0.389 µM	0.316
[5], 1.167 µM	0.11
[5], 3.5 µM	0.14
[6], 60 pM	1.06
[6], 0.00018 µM	1.06
[6], 0.00053 µM	1.07
[6], 0.0016 µM	1.08
[6], 0.0048 µM	1.08
[6], 0.014 µM	1.07
[6], 0.043 µM	1.01
[6], 0.13 µM	0.829
[6], 0.389 µM	0.516
[6], 1.167 µM	0.363
[6], 3.5 µM	0.32
[7], 60 pM	0.996
[7], 0.00018 µM	1.03
[7], 0.00053 µM	1.07
[7], 0.0016 µM	1.01
[7], 0.0048 µM	0.979
[7], 0.014 µM	0.964
[7], 0.043 µM	0.932
[7], 0.13 µM	0.697
[7], 0.389 µM	0.208
[7], 1.167 µM	0.112
[7], 3.5 µM	0.119
[8], 60 pM	1.03
[8], 0.00018 µM	1.01
[8], 0.00053 µM	1.01
[8], 0.0016 µM	1.03
[8], 0.0048 µM	0.985
[8], 0.014 µM	1.018
[8], 0.043 µM	0.977
[8], 0.13 µM	0.929
[8], 0.389 µM	0.765
[8], 1.167 µM	0.504
[8], 3.5 µM	0.398
[9], 60 pM	1.04
[9], 0.00018 µM	1.04
[9], 0.00053 µM	1
[9], 0.0016 µM	1
[9], 0.0048 µM	0.932
[9], 0.014 µM	0.955
[9], 0.043 µM	0.972
[9], 0.13 µM	0.896
[9], 0.389 µM	0.779
[9], 1.167 µM	0.65
[9], 3.5 µM	0.617
[10], 60 pM	1.08
[10], 0.00018 µM	1.13
[10], 0.00053 µM	1.11
[10], 0.0016 µM	1.14
[10], 0.0048 µM	1.15
[10], 0.014 µM	1.13
[10], 0.043 µM	1.09
[10], 0.13 µM	0.889
[10], 0.389 µM	0.633
[10], 1.167 µM	0.506
[10], 3.5 µM	0.491
[11], 60 pM	1.03
[11], 0.00018 µM	1.01
[11], 0.00053 µM	1.01
[11], 0.0016 µM	1.01
[11], 0.0048 µM	0.98
[11], 0.014 µM	0.949
[11], 0.043 µM	0.905
[11], 0.13 µM	0.787
[11], 0.389 µM	0.493
[11], 1.167 µM	0.341
[11], 3.5 µM	0.305
[12], 60 pM	0.988
[12], 0.00018 µM	0.986
[12], 0.00053 µM	0.993
[12], 0.0016 µM	1.02
[12], 0.0048 µM	1
[12], 0.014 µM	0.997
[12], 0.043 µM	1.04
[12], 0.13 µM	0.937
[12], 0.389 µM	0.713
[12], 1.167 µM	0.433
[12], 3.5 µM	0.3

O=S(=O)(c1cccc2c(O)nccc12)N1CCCNCC1 [Hydroxyfasudil]
Conditions	relative viability
[1], 0.00017 µM	1.02
[1], 0.00051 µM	1.05
[1], 0.00152 µM	1.03
[1], 0.00457 µM	1.05
[1], 0.01372 µM	1.052
[1], 0.04115 µM	1.05
[1], 0.1235 µM	1.03
[1], 0.3704 µM	1.03
[1], 1.111 µM	1.038
[1], 3.333 µM	1.01
[1], 10 µM	0.944
[2], 0.00017 µM	1.1
[2], 0.00051 µM	1.09
[2], 0.00152 µM	1.13
[2], 0.00457 µM	1.06
[2], 0.01372 µM	1.1
[2], 0.04115 µM	1.099
[2], 0.1235 µM	1.102
[2], 0.3704 µM	1.1
[2], 1.111 µM	1.139
[2], 3.333 µM	1.1
[2], 10 µM	1.1
[3], 0.00017 µM	1.09
[3], 0.00051 µM	1.09
[3], 0.00152 µM	1.086
[3], 0.00457 µM	1.1
[3], 0.01372 µM	1.09
[3], 0.04115 µM	1.1
[3], 0.1235 µM	1.08
[3], 0.3704 µM	1.07
[3], 1.111 µM	1.07
[3], 3.333 µM	1.049
[3], 10 µM	1.04
[4], 0.00017 µM	0.981
[4], 0.00051 µM	0.973
[4], 0.00152 µM	0.93
[4], 0.00457 µM	0.962
[4], 0.01372 µM	0.944
[4], 0.04115 µM	0.92
[4], 0.1235 µM	0.96
[4], 0.3704 µM	0.942
[4], 1.111 µM	0.934
[4], 3.333 µM	0.879
[4], 10 µM	0.819
[5], 0.00017 µM	0.996
[5], 0.00051 µM	1.02
[5], 0.00152 µM	1
[5], 0.00457 µM	1.01
[5], 0.01372 µM	1.01
[5], 0.04115 µM	1.011
[5], 0.1235 µM	1.03
[5], 0.3704 µM	1.04
[5], 1.111 µM	1.03
[5], 3.333 µM	1.04
[5], 10 µM	1.06
[6], 0.00017 µM	1.089
[6], 0.00051 µM	1.14
[6], 0.00152 µM	1.16
[6], 0.00457 µM	1.14
[6], 0.01372 µM	1.15
[6], 0.04115 µM	1.16
[6], 0.1235 µM	1.15
[6], 0.3704 µM	1.16
[6], 1.111 µM	1.17
[6], 3.333 µM	1.17
[6], 10 µM	1.18
[7], 0.00017 µM	1.09
[7], 0.00051 µM	1.09
[7], 0.00152 µM	1.06
[7], 0.00457 µM	1.05
[7], 0.01372 µM	1.07
[7], 0.04115 µM	1.1
[7], 0.1235 µM	1.06
[7], 0.3704 µM	1.08
[7], 1.111 µM	1.07
[7], 3.333 µM	1.04
[7], 10 µM	1.02
[8], 0.00017 µM	1.01
[8], 0.00051 µM	1.06
[8], 0.00152 µM	1.01
[8], 0.00457 µM	1.06
[8], 0.01372 µM	1.04
[8], 0.04115 µM	1.06
[8], 0.1235 µM	0.983
[8], 0.3704 µM	0.99
[8], 1.111 µM	0.99
[8], 3.333 µM	0.987
[8], 10 µM	0.869
[9], 0.00017 µM	1.06
[9], 0.00051 µM	1.07
[9], 0.00152 µM	1.05
[9], 0.00457 µM	1.07
[9], 0.01372 µM	1.01
[9], 0.04115 µM	1.01
[9], 0.1235 µM	1.038
[9], 0.3704 µM	1.036
[9], 1.111 µM	0.96
[9], 3.333 µM	0.913
[9], 10 µM	0.775
[10], 0.00017 µM	1.16
[10], 0.00051 µM	1.21
[10], 0.00152 µM	1.2
[10], 0.00457 µM	1.16
[10], 0.01372 µM	1.16
[10], 0.04115 µM	1.15
[10], 0.1235 µM	1.14
[10], 0.3704 µM	1.15
[10], 1.111 µM	1.12
[10], 3.333 µM	1.06
[10], 10 µM	1.02
[11], 0.00017 µM	1.12
[11], 0.00051 µM	1.11
[11], 0.00152 µM	1.09
[11], 0.00457 µM	1.1
[11], 0.01372 µM	1.07
[11], 0.04115 µM	1.11
[11], 0.1235 µM	1.07
[11], 0.3704 µM	1.07
[11], 1.111 µM	1.08
[11], 3.333 µM	1.03
[11], 10 µM	0.964
[12], 0.00017 µM	1.07
[12], 0.00051 µM	1.1
[12], 0.00152 µM	1.11
[12], 0.00457 µM	1.08
[12], 0.01372 µM	1.07
[12], 0.04115 µM	1.061
[12], 0.1235 µM	1.06
[12], 0.3704 µM	1.09
[12], 1.111 µM	1.01
[12], 3.333 µM	1.01
[12], 10 µM	0.998
